Source: patent US9181279B2, “Cyclic amine derivatives as EP4 receptor antagonists” (ROTTAPHARM BIOTECH S.R.L., priority 2011, dated 2015)
Values belong to the compound of their own block, whether it stands above or below them.

How the values were obtained:
[1] = Pharmacokinetics in male Han Wistar rats, intravenous and oral; format: in vivo; conditions: male Han Wistar rat
Protocol: The pharmacokinetics of compounds E7, E17 and E18, were studied in male Han Wistar rats. The rats were treated intravenously and orally (n=3 for each dose route) with compounds formulated as solutions. The rats were fitted with a jugular cannula for serial sampling. A full profile was acquired from each rat. Plasma extracts were quantitatively analyzed using a specific and sensitive LC-MS/MS bioanalytical method. Inter-individual variations between the three rats in each group were limited (CV for pharmacokinetic parameters was below 50%).

human EP4 receptor = human EP4 receptor (Homo sapiens (Human), UniProt P35408); test: [3H]-Prostaglandin E2 membrane binding assay toward hEP4 receptors; conditions: [3H]-PGE2 1 nM, membranes of human EP4/HEK293 transfectant; read-out: Binding pKi (converted)
Protocol: Human embryonic kidney cells (HEK-293) were stably transfected with expression vector for human EP4 receptor in according to the method described in FuGENE®6 Transfection Reagent's manual (Roche Applied Science®). […] Incubation was conducted in a polypropylene 96 multiwell for 90 min (EP4) or 60 min (EP2) at room temperature prior to separation of the bound and free radioligand by vacuum manifold rapid filtration on glass fiber filters (Unifilter GFB96, PerkinElmer Inc) pre-soaked in 0.3% polyethyleneimine.

Chain of human EP4 receptor (P35408 whole entry): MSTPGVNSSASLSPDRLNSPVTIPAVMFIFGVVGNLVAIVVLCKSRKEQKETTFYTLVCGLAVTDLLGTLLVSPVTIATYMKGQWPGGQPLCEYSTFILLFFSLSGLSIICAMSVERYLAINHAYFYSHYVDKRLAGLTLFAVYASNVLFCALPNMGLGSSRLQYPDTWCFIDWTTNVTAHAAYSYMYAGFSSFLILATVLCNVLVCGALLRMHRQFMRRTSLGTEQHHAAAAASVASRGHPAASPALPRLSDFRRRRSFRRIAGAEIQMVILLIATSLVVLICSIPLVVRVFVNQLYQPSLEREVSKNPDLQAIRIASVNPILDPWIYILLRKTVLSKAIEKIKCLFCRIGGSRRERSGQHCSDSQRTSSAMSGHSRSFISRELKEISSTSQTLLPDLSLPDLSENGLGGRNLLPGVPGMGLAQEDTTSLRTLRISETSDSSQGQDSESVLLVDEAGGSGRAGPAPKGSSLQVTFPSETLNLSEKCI

SMILES: O=C(O)c1ccc(C2(NC(=O)C3CC4(CCN3Cc3ccc(C(F)(F)F)cc3)CC4)CC2)cc1 (single isomer, unassigned) [Example E7, 4-(1-(6-(4-(trifluoromethyl)benzyl)-6-azaspiro[2.5]octane-5-carboxamido)cyclopropyl)benzoic acid]
- AUC 0-t ([1]; iv, 5 mg/kg): 29200 ng·h/mL
- AUC inf ([1]; iv, 5 mg/kg): 31800 ng·h/mL
- CLp ([1]; iv, 5 mg/kg): 43 mL/h
- Tlast ([1]; iv, 5 mg/kg): 24 h
- Vss ([1]; iv, 5 mg/kg): 395 mL
- t½ ([1]; iv, 5 mg/kg): 7.4 h
- AUC 0-t ([1]; po, 5 mg/kg): 22900 ng·h/mL
- AUC inf ([1]; po, 5 mg/kg): 24900 ng·h/mL
- Cmax ([1]; po, 5 mg/kg): 5330 ng/mL
- F ([1]; po, 5 mg/kg): 78%
- Tlast ([1]; po, 5 mg/kg): 24 h
- Tmax ([1]; po, 5 mg/kg): 0.5 h
- t½ ([1]; po, 5 mg/kg): 6.7 h

- Tlast ([1]; iv, 1 mg/kg): 24 h
- F ([1]; po, 1 mg/kg): 93%
- Tlast ([1]; po, 1 mg/kg): 24 h
SMILES: O=C(O)c1ccc(C2(NC(=O)C3CC(F)(F)CCN3Cc3ccc(C(F)(F)F)cc3)CC2)cc1 (single isomer, unassigned) [Example E18, 4-(1-(4,4-difluoro-1-(4-(trifluoromethyl)benzyl)piperidine-2-carboxamido)cyclopropyl)benzoic acid]

SMILES: O=C(O)c1ccc(C2(NC(=O)[C@H]3CCCCN3Cc3ccc(C(F)(F)F)cc3)CC2)cc1 [Example E4, lithium (R)-4-(1-(1-(4-(trifluoromethyl)benzyl)piperidine-2-carboxamido)cyclopropyl)benzoate]
- Ki (human EP4 receptor): 39.8 nM

- F ([1]; po, 1 mg/kg): 85%
- Tlast ([1]; po, 1 mg/kg): 24 h
SMILES: O=C(O)c1ccc(C2(NC(=O)[C@H]3CC(F)(F)CCN3Cc3ccc(C(F)(F)F)cc3)CC2)cc1 [Example E17, (R)-4-(1-(4,4-difluoro-1-(4-(trifluoromethyl)benzyl)piperidine-2-carboxamido)cyclopropyl)benzoic acid]

SMILES: C[C@H](NC(=O)[C@H]1CCCN1Cc1ccc(C(F)(F)F)cc1)c1ccc(C(=O)O)cc1 [Example E27, lithium 4-((S)-1-((R)-1-(4-(trifluoromethyl)benzyl)pyrrolidine-2-carboxamido)ethyl)benzoate]
- Ki (human EP4 receptor): 50.1 nM
